{"source": "paper PMC12689914", "about": "“Identification of a novel dual-targeting peptide inhibitor of SARS-CoV-2 RBD and NRP1 through structure-based virtual screening” (Frontiers in Pharmacology, 2025)", "key": {"[1]": {"biological_target": "T1, NRP1 (Homo sapiens, UniProt O14786)", "T1 construct": "purchased Abcam", "T1 sequence (O14786 22-923)": "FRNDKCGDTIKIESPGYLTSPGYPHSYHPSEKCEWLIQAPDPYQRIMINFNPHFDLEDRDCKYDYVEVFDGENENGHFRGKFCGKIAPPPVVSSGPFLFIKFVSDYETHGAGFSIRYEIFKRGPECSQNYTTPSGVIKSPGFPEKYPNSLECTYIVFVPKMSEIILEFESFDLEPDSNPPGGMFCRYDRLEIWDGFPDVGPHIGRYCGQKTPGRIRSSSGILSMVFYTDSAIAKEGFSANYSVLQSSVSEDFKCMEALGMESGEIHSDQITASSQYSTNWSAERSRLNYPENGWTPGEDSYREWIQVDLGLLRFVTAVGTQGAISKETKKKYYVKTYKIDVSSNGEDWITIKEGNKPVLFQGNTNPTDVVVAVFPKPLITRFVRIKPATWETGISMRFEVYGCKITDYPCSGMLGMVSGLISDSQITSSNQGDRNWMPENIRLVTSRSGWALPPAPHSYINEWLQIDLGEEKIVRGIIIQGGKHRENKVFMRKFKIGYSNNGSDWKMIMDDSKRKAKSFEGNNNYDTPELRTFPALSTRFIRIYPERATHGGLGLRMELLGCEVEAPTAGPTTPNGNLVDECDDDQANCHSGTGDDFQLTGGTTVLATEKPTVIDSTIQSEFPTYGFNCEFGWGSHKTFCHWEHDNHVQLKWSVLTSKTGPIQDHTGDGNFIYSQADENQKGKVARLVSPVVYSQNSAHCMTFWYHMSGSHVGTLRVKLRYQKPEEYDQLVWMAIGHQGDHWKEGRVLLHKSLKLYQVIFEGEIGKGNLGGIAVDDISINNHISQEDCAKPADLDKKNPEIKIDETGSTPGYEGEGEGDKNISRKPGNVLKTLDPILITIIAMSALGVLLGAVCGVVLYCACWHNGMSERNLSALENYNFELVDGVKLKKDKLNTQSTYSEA", "experiment": "MST binding affinity to NRP1", "description": "(§1) MST assay was used to analyze the binding ability of peptides 1–5 to RBD and NRP1. Specifically, RBD and NRP1 proteins were labeled using a lysine (Lys) labeling kit, respectively, and their final concentrations were adjusted to 50 nM. The peptides were serially diluted in a 1:1 gradient starting from an initial concentration of 12.5 μM. Subsequently, the labeled proteins were mixed with the diluted peptides in 100 mM potassium phosphate buffer (pH 7.0). After incubation at room temperature for 5 min, the mixture was loaded into standard MST glass capillaries. Detection was performed using a Monolith NT.115 instrument with the MST power set to 50% and the LED power set to 20%. The experiment was independently repeated three times."}, "[2]": {"biological_target": "SARS-CoV-2 RBD", "experiment": "MST binding affinity to RBD", "settings": "for Kd: MST, 50 nM labeled protein, 100 mM potassium phosphate buffer pH 7.0", "description": "as §1"}, "[3]": {"system": "live SARS-CoV-2 Omicron XBB.1.5 strain", "set-up": "species or system K18-hACE2 mice", "settings": "mouse, in vivo"}, "[4]": {"system": "SARS-CoV-2 Omicron XBB.1.5 pseudovirus", "settings": "3.2 µM"}, "[5]": {"system": "A549 cells", "experiment": "MTT cytotoxicity assay", "format": "cell-based, human", "settings": "100 μM, 48 h", "description": "A549 cells ([…], catalog number: PCS-300-010) were purchased from the American Type Culture Collection (ATCC, Manassas, VA, United States). The cells were cultured in Airway Epithelial Cell Basal Medium (ATCC, catalog number: PCS-300-030) supplemented with Bronchial/Tracheal Epithelial Cell Growth Kit (ATCC, catalog number: PCS-300-040) and incubated in a 37 °C incubator with 5% CO2. Then, cells were seeded into 96-well plates at a density of 5 × 10^4 cells per well and incubated overnight at 37 °C with 5% CO2. Subsequently, cells were treated with 100 μM peptides 1–5 for 48 h. After treatment, MTT stock solution (0.5 mg/mL) was added to each well, followed by additional 4-h incubation. Finally, the absorbance signal was measured at 570 nm using a microplate reader."}, "[6]": {"settings": "mice, 1 and 5 mg/kg intranasal"}, "[7]": {"biological_target": "T2, hERG channel (Homo sapiens, UniProt Q12809)", "T2 construct": "purchased Invitrogen", "T2 sequence (Q12809 whole entry)": "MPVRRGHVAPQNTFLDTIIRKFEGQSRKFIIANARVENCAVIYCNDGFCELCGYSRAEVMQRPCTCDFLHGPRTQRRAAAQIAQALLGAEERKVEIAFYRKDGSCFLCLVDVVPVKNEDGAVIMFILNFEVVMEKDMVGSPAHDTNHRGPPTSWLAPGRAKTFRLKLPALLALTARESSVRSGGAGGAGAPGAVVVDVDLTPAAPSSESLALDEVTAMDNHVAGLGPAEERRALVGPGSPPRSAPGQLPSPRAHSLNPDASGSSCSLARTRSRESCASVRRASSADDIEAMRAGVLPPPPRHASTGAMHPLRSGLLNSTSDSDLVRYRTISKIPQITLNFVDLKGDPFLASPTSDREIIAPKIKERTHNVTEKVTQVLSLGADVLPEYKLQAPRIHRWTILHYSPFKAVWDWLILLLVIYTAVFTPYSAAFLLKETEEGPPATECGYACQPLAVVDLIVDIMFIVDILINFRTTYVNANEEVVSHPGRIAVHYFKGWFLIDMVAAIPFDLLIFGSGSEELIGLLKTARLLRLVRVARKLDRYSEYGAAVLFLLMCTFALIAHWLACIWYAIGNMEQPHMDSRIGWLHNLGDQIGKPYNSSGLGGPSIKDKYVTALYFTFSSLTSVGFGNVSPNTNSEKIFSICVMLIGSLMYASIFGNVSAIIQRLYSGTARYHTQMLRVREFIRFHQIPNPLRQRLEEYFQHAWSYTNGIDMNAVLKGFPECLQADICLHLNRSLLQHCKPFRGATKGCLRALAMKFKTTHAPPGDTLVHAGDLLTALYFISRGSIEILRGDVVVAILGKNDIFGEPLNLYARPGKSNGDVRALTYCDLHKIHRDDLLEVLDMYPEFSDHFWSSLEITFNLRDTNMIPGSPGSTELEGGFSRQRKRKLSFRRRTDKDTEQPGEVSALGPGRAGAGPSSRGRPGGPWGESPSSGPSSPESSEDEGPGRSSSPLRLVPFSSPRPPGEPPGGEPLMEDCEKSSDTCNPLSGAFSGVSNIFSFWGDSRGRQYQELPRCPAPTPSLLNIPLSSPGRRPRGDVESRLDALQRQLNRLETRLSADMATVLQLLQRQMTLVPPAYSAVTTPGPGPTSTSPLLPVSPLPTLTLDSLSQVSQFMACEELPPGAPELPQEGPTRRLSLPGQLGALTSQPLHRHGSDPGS", "experiment": "Predictor hERG fluorescence polarization assay", "format": "binding", "settings": "for IC50 at 4 h: human, Predictor hERG Membrane (Invitrogen kit)", "description": "This study was conducted using the Predictor hERG Fluorescence Polarization Assay Kit purchased from Invitrogen. The kit comprises Predictor hERG Tracer Red, Predictor hERG Membrane, Predictor hERG FP Assay Buffer, and E-4031 as the positive control. The Predictor hERG Tracer Red was diluted to prepare a 4 nM tracer working solution, while the stock solution of E-4031 was diluted to a 120 μM E-4031 working solution. Subsequently, serial dilutions of E-4031 were prepared to serve as the reference compound. Test peptides were subjected to gradient dilution to generate solutions with 6 concentration gradients. For the assay procedure, buffer or compound solution was first added to the assay plate, followed by the addition of membrane and the tracer. After incubating the assay plate at 25 °C for 4 h, fluorescence polarization (FP) values (mp values) were measured using an EnVision microplate reader (PerkinElmer) equipped with a set of polarized filters. The half-maximal inhibitory concentration (IC50) of active compounds was determined using GraphPad Prism software."}}, "note": "Non-standard residues stand in square brackets, D forms with d. Residues, ends and D or L forms follow the SMILES beside them. No end group written: not given here. *: point of attachment. Biotin = O=C1N[C@H]2[C@H](CS[C@H]2CCCCC(=O)*)N1; βAla = NCCC(=O)O"}
{"compound": "N=C(N)NCCC[C@@H](N)C(=O)N1CCC[C@@H]1C(=O)N1CCC[C@@H]1C(=O)N[C@H](CCCNC(=N)N)C(=O)N[C@H](CCC(=O)O)C(=O)NCC(=O)N[C@H](CCCNC(=N)N)C(=O)O", "note": "[NTP, rppregr] (H-[dR][dP][dP][dR][dE]G[dR]-OH)", "values": [{"measurement": "Kd", "setting": "[1]", "result": 0.141, "unit": "µM"}]}
{"compound": "CSCC[C@H](NC(=O)[C@@H](NC(=O)[C@@H](N)CC(C)C)C(C)C)C(=O)NCC(=O)N[C@@H](CC(C)C)C(=O)N[C@@H](CC(N)=O)C(=O)N[C@H](C(=O)N[C@@H](Cc1c[nH]c2ccccc12)C(=O)N[C@@H](CC(C)C)C(=O)N[C@@H](CCCNC(=N)N)C(=O)N[C@@H](Cc1ccc(O)cc1)C(=O)N[C@@H](CO)C(=O)N[C@@H](CCCCN)C(=O)NCCC(=O)N[C@@H](CCCCNC(=O)CCCC[C@@H]1SC[C@@H]2NC(=O)N[C@@H]21)C(N)=O)C(C)C", "note": "[PP-4] (H-LVMGLNVWLRYSK[βAla]K(Biotin)-NH2; N-terminus assumed)", "values": [{"measurement": "Kd", "setting": "[2]", "result": 0.079, "unit": "µM"}, {"measurement": "NRP1 (Kd)", "setting": "[1]; MST, 50 nM labeled protein, 100 mM potassium phosphate buffer pH 7.0", "result": "no binding affinity"}]}
{"compound": "CC(C)C[C@H](NC(=O)[C@H](CCC(=O)O)NC(=O)[C@H](C)NC(=O)[C@@H](N)CCC(=O)O)C(=O)N[C@H](CC(=O)O)C(=O)N[C@H](C(=O)N[C@@H](CO)C(=O)N[C@@H](CC(=O)O)C(=O)N[C@@H](C)C(=O)N[C@@H](Cc1ccccc1)C(=O)N[C@@H](Cc1ccc(O)cc1)C(=O)N[C@@H](CCCNC(=N)N)C(=O)N[C@@H](Cc1ccccc1)C(=O)N[C@@H](Cc1ccccc1)C(=O)N[C@@H](CCCNC(=N)N)C(=O)N[C@@H](CCCNC(=N)N)C(=O)N[C@@H](C)C(=O)N[C@@H](CCCNC(=N)N)C(=O)O)C(C)C", "note": "[Peptide-1] (H-EAEL[dD]VSDAFYRFFRRAR-OH; N-terminus and C-terminus assumed)", "values": [{"measurement": "viral load in the lungs of mice vs control", "setting": "[3]", "result": "significantly reduced"}, {"measurement": "inhibition rate against SARS-CoV-2 Omicron XBB.1.5 infection", "setting": "[4]", "result": "approximately 80%"}, {"measurement": "cytotoxicity to A549 cells", "setting": "[5]", "result": "no obvious toxicity"}, {"measurement": "alanine aminotransferase (ALT) level", "setting": "[6]", "result": "did not change significantly"}, {"measurement": "aspartate aminotransferase (AST) level", "setting": "[6]", "result": "did not change significantly"}, {"measurement": "blood urea nitrogen (BUN) level", "setting": "[6]", "result": "did not change significantly"}, {"measurement": "creatinine (CRE) level", "setting": "[6]", "result": "did not change significantly"}, {"measurement": "Kd", "setting": "[2]", "result": 0.019, "unit": "µM"}, {"measurement": "fold higher affinity for RBD compared with the single-target peptide", "setting": "[2]; versus PP-4", "result": "approximately 4.2 fold"}, {"measurement": "fold higher affinity for NRP1 compared with the single-target peptide", "setting": "[1]; versus NTP", "result": "~4.4", "unit": "fold"}, {"measurement": "IC50 at 4 h", "setting": "[7]", "result": "> 50", "unit": "µM"}]}
{"compound": "CC(C)C[C@H](NC(=O)[C@H](C)NC(=O)[C@@H](NC(=O)[C@@H](N)CO)[C@@H](C)O)C(=O)N[C@H](CC(=O)O)C(=O)N[C@H](C(=O)N[C@@H](CO)C(=O)N[C@@H](CC(=O)O)C(=O)N[C@@H](C)C(=O)N[C@@H](Cc1ccccc1)C(=O)N[C@@H](Cc1ccc(O)cc1)C(=O)N[C@@H](CCCNC(=N)N)C(=O)N[C@@H](Cc1ccccc1)C(=O)N[C@@H](Cc1ccccc1)C(=O)N[C@@H](CCCNC(=N)N)C(=O)N[C@@H](CCCCN)C(=O)N[C@@H](C)C(=O)N[C@@H](CCCNC(=N)N)C(=O)O)C(C)C", "note": "[Peptide-2] (H-STAL[dD]VSDAFYRFFRKAR-OH; N-terminus and C-terminus assumed)", "values": [{"measurement": "Kd", "setting": "[2]", "result": 0.056, "unit": "µM"}, {"measurement": "IC50 at 4 h", "setting": "[7]", "result": "> 50", "unit": "µM"}]}
{"compound": "CC[C@H](C)[C@H](NC(=O)[C@@H](N)CC(N)=O)C(=O)N[C@@H](CCC(=O)O)C(=O)N[C@@H](CC(C)C)C(=O)N[C@H](CC(=O)O)C(=O)N[C@@H](C)C(=O)N[C@@H](CO)C(=O)N[C@@H](CC(=O)O)C(=O)N[C@@H](C)C(=O)N[C@@H](Cc1ccccc1)C(=O)N[C@H](C(=O)N[C@@H](CCCNC(=N)N)C(=O)N[C@@H](Cc1ccccc1)C(=O)N[C@@H](Cc1ccccc1)C(=O)N[C@@H](CCCNC(=N)N)C(=O)N[C@@H](CCC(N)=O)C(=O)N[C@@H](C)C(=O)N[C@@H](CCCNC(=N)N)C(=O)O)C(C)C", "note": "[Peptide-4] (H-NIEL[dD]ASDAFVRFFRQAR-OH; N-terminus and C-terminus assumed)", "values": [{"measurement": "Kd", "setting": "[2]", "result": 0.069, "unit": "µM"}, {"measurement": "IC50 at 4 h", "setting": "[7]", "result": "> 50", "unit": "µM"}]}
{"compound": "CC[C@H](C)[C@H](NC(=O)[C@H](CCC(=O)O)NC(=O)[C@H](CS)NC(=O)[C@H](C)N)C(=O)N[C@H](CC(=O)O)C(=O)N[C@H](C(=O)N[C@@H](CO)C(=O)N[C@@H](CC(=O)O)C(=O)N[C@@H](C)C(=O)N[C@@H](Cc1ccccc1)C(=O)N[C@@H](CCCCN)C(=O)N[C@@H](CCCNC(=N)N)C(=O)N[C@@H](Cc1ccccc1)C(=O)N[C@@H](Cc1ccccc1)C(=O)N[C@@H](CCCNC(=N)N)C(=O)N[C@@H](C)C(=O)N[C@@H](C)C(=O)N[C@@H](CCCNC(=N)N)C(=O)O)C(C)C", "note": "[Peptide-5] (H-ACEI[dD]VSDAFKRFFRAAR-OH; N-terminus and C-terminus assumed)", "values": [{"measurement": "Kd", "setting": "[2]", "result": 0.043, "unit": "µM"}, {"measurement": "IC50 at 4 h", "setting": "[7]", "result": "> 50", "unit": "µM"}]}
{"compound": "ELELVVSTAFYRFFRHAR [Peptide-3]", "values": [{"measurement": "Kd", "setting": "[1]", "result": 0.081, "unit": "µM"}, {"measurement": "IC50", "setting": "[7]", "result": "> 50", "unit": "µM"}]}
